Values of other authors, collected in article PMC12697872, “Rethinking the AI Paradigm for Solubility Prediction of Drug‑Like Compounds with Dual‐Perspective Modeling and Experimental Validation” (Advanced Science, 2025).

Details: experimental aqueous solubility as logS, sheet "DrugBank" of Supplement 2; ref DrugBank; cited from earlier work

With `CN1c2c(nc(N)[nH]c2=O)NC[C@@H]1CNc1ccc(C(=O)N[C@@H](CCC(=O)O)C(=O)O)cc1` [Levomefolic acid] as the compound, how does the ex_logS read?
Its ex_logS is -3.185.

For `NC1(C(=O)O)CCCC1` [Cycloleucine], which ex_logS is on record?
Its ex_logS is -0.4121.

With `C=CC1=C(C(=O)O)N2C(=O)[C@@H](NC(=O)/C(=N\OCC(=O)O)c3csc(N)n3)[C@H]2SC1` [Cefixime] as the compound, how does the ex_logS read?
Its ex_logS is -3.9153.

With `C=CCC1(C(C)CCC)C(=O)N=C(S)NC1=O` (stereo not drawn) [Thiamylal] as the compound, how does the ex_logS read?
Its ex_logS is -3.7117.

With `CC(C(=O)O)c1ccc(N2Cc3ccccc3C2=O)cc1` (stereo not drawn) [indoprofen] as the compound, how does the ex_logS read?
Its ex_logS is -4.82.

With `Cc1cccc(N(C)C(=S)Oc2ccc3ccccc3c2)c1` [Tolnaftate] as the compound, how does the ex_logS read?
Its ex_logS is -6.641.

Which ex_logS does the source give for `CC(C)NCC(O)COc1cccc2ccccc12` (stereo not drawn) [Propranolol] here?
The ex_logS was -3.624.

Which ex_logS does the source give for `S=c1[nH]cnc2nc[nH]c12` [Mercaptopurine] here?
Its ex_logS is -3.089.

For `CC(=O)[C@@]1(C)CC[C@H]2[C@@H]3C=C(C)C4=CC(=O)CC[C@]4(C)[C@H]3CC[C@@]21C` [Medrogestone], which ex_logS is on record?
Its ex_logS is -5.277.

For `Cn1nnc2c(C(N)=O)ncn2c1=O` [Temozolomide], which ex_logS is on record?
The ex_logS was -1.581.

With `CCC(N)Cc1c[nH]c2ccccc12` (stereo not drawn) [Etryptamine] as the compound, how does the ex_logS read?
The ex_logS was -2.567.

For `Cc1cnc(Nc2ccc(OCCN3CCCC3)cc2)nc1Nc1cccc(S(=O)(=O)NC(C)(C)C)c1` [Fedratinib], which ex_logS is on record?
Its ex_logS is -5.118.

For `CC(C)(C)NCC(O)COc1cccc2c1CC(O)C(O)C2` (stereo not drawn) [Nadolol], which ex_logS is on record?
Its ex_logS is -1.57.

Which ex_logS does the source give for `Cc1ccc(/C(=C\CN2CCCC2)c2ccccn2)cc1` [Triprolidine] here?
Its ex_logS is -3.57.

With `CC(C)NCC(O)c1cc(O)cc(O)c1` (stereo not drawn) [Orciprenaline] as the compound, how does the ex_logS read?
The ex_logS was -4.338.

With `O=C1CN=C(c2ccccn2)c2cc(Br)ccc2N1` [bromazepam] as the compound, how does the ex_logS read?
Its ex_logS is -3.48.

With `CC(=O)Nc1ccc(O)cc1` [acetaminophen] as the compound, how does the ex_logS read?
Its ex_logS is -1.02.

For `Cl[C@H]1[C@H](Cl)[C@@H](Cl)[C@@H](Cl)[C@H](Cl)[C@H]1Cl` [Lindane], which ex_logS is on record?
Its ex_logS is -4.6.

Same assay, conditions: experimental aqueous solubility as logS, sheet "DrugBank"; ref DrugBank database; cited from earlier work

With `O=C(O)[C@H](O)c1ccccc1` [(R)-Mandelic acid] as the compound, how does the ex_logS read?
The ex_logS was -0.1409.

For `Clc1ccccc1C(c1ccccc1)(c1ccccc1)n1ccnc1` [Clotrimazole], which ex_logS is on record?
The ex_logS was -5.847.

With `C[C@]12CCC(=O)C=C1CC[C@@H]1[C@@H]2CC[C@@]2(C)[C@H]1CC[C@]2(C)O` [Methyltestosterone] as the compound, how does the ex_logS read?
The ex_logS was -3.95.

With `C=CC1=C(C(=O)O)N2C(=O)[C@@H](NC(=O)/C(=N\O)c3csc(N)n3)[C@H]2SC1` [Cefdinir] as the compound, how does the ex_logS read?
The ex_logS was -1.65.

For `CC1(C)S[C@@H]2[C@H](/N=C/N3CCCCCC3)C(=O)N2[C@H]1C(=O)O` [Amdinocillin], which ex_logS is on record?
Its ex_logS is -4.5.

For `Cc1cnc(NC(=O)C2=C(O)c3ccccc3S(=O)(=O)N2C)s1` [Meloxicam], which ex_logS is on record?
Its ex_logS is -4.467.

For `COc1cc(N)c(Cl)cc1C(=O)NC1CCN(CCCOc2ccc(F)cc2)CC1OC` (stereo not drawn) [Cisapride], which ex_logS is on record?
Its ex_logS is -5.235.

Which ex_logS does the source give for `COc1ccc2c(c1)N(C[C@H](C)CN(C)C)c1ccccc1S2` [Methotrimeprazine] here?
The ex_logS was -4.215.

With `C=CC1=C(C)c2cc3[nH]c(cc4nc(cc5[nH]c(cc1n2)c(C)c5CCC(=O)O)C(CCC(=O)O)=C4C)c(C)c3C=C` [Protoporphyrin] as the compound, how does the ex_logS read?
The ex_logS was -3.522.

For `Cc1ccnc2c1ccc1c(C)ccnc12` [4,7-Dimethyl-[1,10]Phenanthroline], which ex_logS is on record?
The ex_logS was -3.968.

For `Nc1ccc(C(=O)O)c(O)c1` [Aminosalicylic acid], which ex_logS is on record?
Its ex_logS is -1.957.

Which ex_logS does the source give for `CC(=O)OCC(=O)[C@@]12N=C(C)O[C@@H]1C[C@H]1[C@@H]3CCC4=CC(=O)C=C[C@]4(C)[C@H]3[C@@H](O)C[C@@]12C` [Deflazacort] here?
Its ex_logS is -3.612.

For `CCOC(=O)C1=C(C)NC(C)=C(C(=O)OC)C1c1cccc(Cl)c1Cl` (stereo not drawn) [Felodipine], which ex_logS is on record?
The ex_logS was -4.29.

Which ex_logS does the source give for `NC(=O)c1ccccc1O` [Salicylamide] here?
Its ex_logS is -1.823.

Which ex_logS does the source give for `OC[C@H]1O[C@@H](n2cnc3c2NC=NC[C@H]3O)C[C@@H]1O` [Pentostatin] here?
The ex_logS was -0.9514.

For `NCCCNCCSP(=O)(O)O` [Amifostine], which ex_logS is on record?
The ex_logS was 0.6691.

Which ex_logS does the source give for `NC(=O)N/N=C/c1ccc([N+](=O)[O-])o1` [Nitrofural] here?
The ex_logS was -2.975.

For `CC(C)(C#N)c1cc(Cn2cncn2)cc(C(C)(C)C#N)c1` [Anastrozole], which ex_logS is on record?
The ex_logS was -2.743.

For `O=C(CCCN1CCC(O)(c2ccc(Cl)cc2)CC1)c1ccc(F)cc1` [Haloperidol], which ex_logS is on record?
The ex_logS was -4.4289.

With `CC[C@@]1(O)C(=O)OCc2c1cc1n(c2=O)Cc2cc3c(CN(C)C)c(O)ccc3nc2-1` [Topotecan] as the compound, how does the ex_logS read?
Its ex_logS is -2.625.

For `O=C(O)c1cccnc1` [Niacin], which ex_logS is on record?
Its ex_logS is -0.835.

With `C[C@@H]1O[C@@H](O[C@H]2C[C@@H](O)[C@]3(CO)[C@H]4[C@H](O)C[C@]5(C)[C@@H](C6=CC(=O)OC6)CC[C@]5(O)[C@@H]4CC[C@]3(O)C2)[C@H](O)[C@H](O)[C@H]1O` [Ouabain] as the compound, how does the ex_logS read?
The ex_logS was -1.754.

For `COc1cccc2c1C(=O)c1c(O)c3c(c(O)c1C2=O)C[C@@](O)(C(=O)CO)C[C@@H]3O[C@H]1C[C@H](N)[C@@H](O)[C@H](C)O1` [Epirubicin], which ex_logS is on record?
Its ex_logS is -3.767.

Which ex_logS does the source give for `CC/C=C\C/C=C\C/C=C\CCCCCCCC(=O)O` [alpha-Linolenic acid] here?
The ex_logS was -6.351.

Which ex_logS does the source give for Cyanocobalamin here?
Its ex_logS is -2.035.

For `CCc1cccc2c3c([nH]c12)C(CC)(CC(=O)O)OCC3` (stereo not drawn) [Etodolac], which ex_logS is on record?
The ex_logS was -4.2543.

Which ex_logS does the source give for `Nc1ccc(S(=O)(=O)Nc2ccnn2-c2ccccc2)cc1` [Sulfaphenazole] here?
Its ex_logS is -2.321.

With `CCC(=O)O[C@H]1CC[C@H]2[C@@H]3CCC4=CC(=O)CC[C@]4(C)[C@H]3CC[C@]12C` [Testosterone propionate] as the compound, how does the ex_logS read?
The ex_logS was -5.367.

For `NC(=O)C[C@H](N)C(=O)O` [Asparagine], which ex_logS is on record?
Its ex_logS is -0.6526.

With `CCN(CC)C(C)CN1c2ccccc2Sc2ccccc21` (stereo not drawn) [Profenamine] as the compound, how does the ex_logS read?
The ex_logS was -5.654.

With `CCOC(=O)Nc1ccc2c(c1)N(C(=O)CCN1CCOCC1)c1ccccc1S2` [Moricizine] as the compound, how does the ex_logS read?
Its ex_logS is -5.971.

Which ex_logS does the source give for `CN1CCC(CN2c3ccccc3Sc3ccccc32)C1` (stereo not drawn) [Methdilazine] here?
Its ex_logS is -5.93.

For `CC(=O)OCC1=C(C(=O)O)N2C(=O)[C@@H](NC(=O)Cc3cccs3)[C@H]2SC1` [Cefalotin], which ex_logS is on record?
Its ex_logS is -3.4.

Which ex_logS does the source give for `NC(=O)O[C@@H](Cn1ncnn1)c1ccccc1Cl` [Cenobamate] here?
Its ex_logS is -2.197.

With `CCOC(=O)c1ncn2c1CN(C)C(=O)c1cc(F)ccc1-2` [Flumazenil] as the compound, how does the ex_logS read?
Its ex_logS is -3.375.

Which ex_logS does the source give for `CCCCCc1cc(O)c2c(c1)OC(C)(C)[C@@H]1CCC(C)=C[C@@H]21` [Dronabinol] here?
The ex_logS was -5.05.

With `O=C(O)CCCC[C@@H]1SC[C@@H]2NC(=O)N[C@@H]21` [Biotin] as the compound, how does the ex_logS read?
The ex_logS was -3.046.

With `CCCc1c2oc(C(=O)O)cc(=O)c2cc2c(=O)cc(C(=O)O)n(CC)c12` [Nedocromil] as the compound, how does the ex_logS read?
Its ex_logS is -3.4084.

For `Clc1ccc(C(c2ccccc2Cl)C(Cl)Cl)cc1` (stereo not drawn) [Mitotane], which ex_logS is on record?
Its ex_logS is -6.505.

Which ex_logS does the source give for `COc1cc(NCc2ccc3nc(N)nc(N)c3c2C)cc(OC)c1OC` [Trimetrexate] here?
The ex_logS was -4.071.

With `CC/C(=C(/CC)c1ccc(O)cc1)c1ccc(O)cc1` [Diethylstilbestrol] as the compound, how does the ex_logS read?
Its ex_logS is -4.35.

Which ex_logS does the source give for `CC(=O)/N=c1/sc(S(N)(=O)=O)nn1C` [Methazolamide] here?
The ex_logS was -1.829.

Which ex_logS does the source give for `O=C(O)c1cc(=O)c2c(OCC(O)COc3cccc4oc(C(=O)O)cc(=O)c34)cccc2o1` [Cromoglicic acid] here?
The ex_logS was -3.348.

Which ex_logS does the source give for `NNC(=O)c1ccncc1` [Isoniazid] here?
Its ex_logS is 0.008966.

With `COC(=O)N(C)c1c(N)nc(-c2nn(Cc3ccccc3F)c3ncccc23)nc1N` [Riociguat] as the compound, how does the ex_logS read?
The ex_logS was -5.024.
